In the NIST ThermoML archive (doi:10.1021/acs.jced.6b00269):

Settings: for viscosity / mass density: 101.33 kPa, Liquid; for viscosity: Cone and plate viscometry; for Glass transition temperature: DSC; for mass density: Vibrating tube method

CCOCc1n(CC)cc[n+]1C.O=S(=O)([N-]S(=O)(=O)C(F)(F)F)C(F)(F)F
Settings | Glass transition temperature [°C] | viscosity [mPa·s]
– | -78 | –
278.15 K | – | 207
283.15 K | – | 149
288.15 K | – | 111
293.15 K | – | 85
298.15 K | – | 66
303.15 K | – | 53

CCCCCCC[P+](CC)(CC)CC.O=[N+]([O-])c1cn[n-]c1 [triethylheptylphosphonium 4-nitropyrazolide]
Settings | Glass transition temperature [°C] | mass density [kg/m3] | viscosity [mPa·s]
– | -72 | – | –
278.15 K | – | – | 1000
283.15 K | – | 1047.1 | 657
288.15 K | – | 1044 | 443
293.15 K | – | 1040.9 | 309
295.15 K | – | 1039.7 | –
298.15 K | – | 1037.8 | 223
303.15 K | – | 1034.8 | 165
308.15 K | – | 1031.8 | 126
313.15 K | – | 1028.8 | 97
318.15 K | – | 1026 | 77
323.15 K | – | 1023.1 | 62
328.15 K | – | 1020.2 | –
333.15 K | – | 1017.3 | –
338.15 K | – | 1014.5 | –
343.15 K | – | 1011.6 | –
348.15 K | – | 1008.8 | –
353.15 K | – | 1006 | –

Settings | Normal melting temperature [°C]
Crystal, DTA | 16

CCC=Cn1cc[n+](C)c1C.O=[N+]([O-])c1cn[n-]c1 [1-but-1-enyl-2,3-dimethylimidazolium 4-nitropyrazolide]
Settings | Glass transition temperature [°C] | mass density [kg/m3] | viscosity [mPa·s]
– | -53 | – | –
278.15 K | – | – | 6650
283.15 K | – | 1191.5 | 3260
288.15 K | – | 1187.7 | 1720
293.15 K | – | 1184.2 | 973
295.15 K | – | 1182.8 | –
298.15 K | – | 1180.8 | 590
303.15 K | – | 1177.5 | 380
308.15 K | – | 1174.1 | 255
313.15 K | – | 1170.8 | 179
318.15 K | – | 1167.6 | 131
323.15 K | – | 1164.4 | 99
328.15 K | – | 1161.1 | 77
333.15 K | – | 1157.9 | 62
338.15 K | – | 1154.7 | 50
343.15 K | – | 1151.5 | –
348.15 K | – | 1148.3 | –
353.15 K | – | 1145.2 | –

CCCCCCCCCCCCCC[P+](CCCCCC)(CCCCCC)CCCCCC.O=[N+]([O-])c1c[n-]cn1 [trihexyl(tetradecyl)phosphonium 4-nitroimidazolide]
Settings | Glass transition temperature [°C] | mass density [kg/m3] | viscosity [mPa·s]
– | -66 | – | –
278.15 K | – | – | 3380
283.15 K | – | 949.4 | 2220
288.15 K | – | 946.3 | 1500
293.15 K | – | 943.1 | 1040
295.15 K | – | 941.8 | –
298.15 K | – | 940.1 | 735
303.15 K | – | 937.1 | 533
308.15 K | – | 934.2 | 396
313.15 K | – | 931.3 | 298
318.15 K | – | 928.4 | 230
323.15 K | – | 925.4 | 180
328.15 K | – | 922.6 | 144
333.15 K | – | 919.7 | 117
338.15 K | – | 916.9 | 96
343.15 K | – | 914 | 80
348.15 K | – | 911.2 | –
353.15 K | – | 908.3 | –

CCCCCCSC(N(C)C)=[N+](C)C.O=S(=O)([N-]S(=O)(=O)C(F)(F)F)C(F)(F)F
Settings | Glass transition temperature [°C] | mass density [kg/m3] | viscosity [mPa·s]
– | -82 | – | –
278.15 K | – | – | 268
283.15 K | – | 1352.2 | 193
288.15 K | – | 1347.8 | 143
293.15 K | – | 1343.4 | 109
295.15 K | – | 1341.6 | –
298.15 K | – | 1339 | 85
303.15 K | – | 1334.6 | 68
308.15 K | – | 1330.2 | 55
313.15 K | – | 1325.8 | –
318.15 K | – | 1321.5 | –
323.15 K | – | 1317.1 | –
328.15 K | – | 1312.8 | –
333.15 K | – | 1308.5 | –
338.15 K | – | 1304.2 | –
343.15 K | – | 1299.8 | –
348.15 K | – | 1295.6 | –
353.15 K | – | 1291.3 | –

CCCCCCCC[P+](CC)(CC)CC.Cc1ncc([N+](=O)[O-])[n-]1 [triethyloctylphosphonium 2-methyl-5-nitroimidazolide]
Settings | Glass transition temperature [°C] | mass density [kg/m3] | viscosity [mPa·s]
– | -67 | – | –
278.15 K | – | – | 3720
283.15 K | – | 1037.8 | 2280
288.15 K | – | 1034.6 | 1440
293.15 K | – | 1031.5 | 940
295.15 K | – | 1030.3 | –
298.15 K | – | 1028.6 | 637
303.15 K | – | 1025.6 | 446
308.15 K | – | 1022.7 | 321
313.15 K | – | 1019.8 | 237
318.15 K | – | 1016.9 | 179
323.15 K | – | 1014.1 | 138
328.15 K | – | 1011.2 | 109
333.15 K | – | 1008.4 | 80
338.15 K | – | 1005.6 | –
343.15 K | – | 1002.7 | –
348.15 K | – | 999.9 | –
353.15 K | – | 997.1 | –
